Data on 7 compounds can be found in ChEMBL document CHEMBL1148316, “Discovery of 5-(4-chlorophenyl)-1-(2,4-dichlorophenyl)-3-hexyl-1h-1,2,4-triazole, a novel in vivo cannabinoid antagonist containing a 1,2,4-triazole motif” (J Med Chem, 2004).

Activity calls are given as the source filed them. The rule behind the calls is not given here.

Common to all, as to format: functional
The species entered for one assay is Mus musculus. Put plainly: Effect on electrically evoked contractions in mouse vas deferens at 10E-8 to 10E-6 M concentration; No effect.
The species entered for a further assay is Cavia porcellus. Put plainly: Effect on electrically evoked contractions in […] plexus longitudinal muscles of guinea pig at 10E-8 to 2.4E-6 M; No effect. As to conditions: Muscle tissue.
Assay [1] is described as follows: Effect on cannabinoid tetrad (nociception, temperature, spontaneous motility and catalepsy) of behavioral test; induce hypothermia.
A short description of assay [2]: Effect on cannabinoid tetrad (nociception, temperature, spontaneous motility and catalepsy) of behavioral test; inhibit spontaneous motility.
Assay [3] can be described thus: Effect on cannabinoid tetrad (nociception, temperature, spontaneous motility and catalepsy) of behavioral test; induce catalepsy.
Assay [4] in a line: Effect on cannabinoid tetrad (nociception, temperature, spontaneous motility and catalepsy) of behavioral test; induce antinociception.
The nature of assay [5]: Effect on cannabinoid tetrad (nociception, temperature, spontaneous motility and catalepsy) of behavioral test; no significant effect.

In the case of `CCCCCCc1nc(-c2ccc(Cl)cc2)n(-c2ccc(Cl)cc2)n1`, the outcome in the assay filed under Mus musculus and in the assay listed under Cavia porcellus was inactive.

Turning to `Cc1c(C(=O)c2cccc3ccccc23)c2cccc3c2n1[C@H](CN1CCOCC1)CO3`, the result in assay [1], in assay [2], in assay [3] and in assay [4] was Active.

For `CCCCCCc1nc(-c2ccc(Cl)cc2Cl)n(-c2ccc(Cl)cc2Cl)n1`, the outcome in the assay filed under Mus musculus and in the assay listed under Cavia porcellus was inactive.

On to `CCCCCCc1nc(-c2ccc(Cl)cc2)n(-c2ccc(Cl)cc2Cl)n1`, for which the result (in assay [5]; in the assay filed under Mus musculus; in the assay listed under Cavia porcellus) was inactive.

Consider `CCc1nc(-c2ccc(Cl)cc2)n(-c2ccc(Cl)cc2)n1`, for which the outcome in the assay filed under Mus musculus and in the assay listed under Cavia porcellus was inactive.

Turning to `CCCCCCCc1nc(-c2ccccc2)n(-c2ccccc2)n1`, the outcome in the assay listed under Mus musculus and in the assay filed under Cavia porcellus was inactive.

In the case of `CCc1nc(-c2ccc(Cl)cc2)n(-c2ccccc2)n1`, the outcome in the assay filed under Mus musculus and in the assay filed under Cavia porcellus was inactive.
